Publication PMC8292404 (British Journal of Cancer, 2021)
Where two headings read alike, the source gives them in different places.

Key:
[1] = test system: aHCC with MET alteration; set-up: method as in PMID 31853265; settings: cited from earlier work
[2] = test system: sorafenib pretreated advanced hepatocellular carcinoma (aHCC); test: Phase 1b: tumour response and survival (RECIST v1.1, investigator); assay type: in vivo, human; settings: for Best overall response CR / Best overall response Not evaluable / Best overall response PD / Best overall response PR / Best overall response SD: investigator RECIST v1.1
Excerpt: This was an open-label, multicentre, integrated, Phase 1b/2 trial conducted across Europe and the US in patients with aHCC who had failed sorafenib treatment.
(§1) In both study phases, eligible patients were ≥18 years old with aHCC, Child–Pugh Class A liver function score, Eastern Cooperative Oncology Group performance status 0 or 1, and measurable disease defined by Response Evaluation Criteria In Solid Tumors (RECIST) v1.1. […] Exclusion criteria included any prior systemic anti-cancer treatment for aHCC (besides sorafenib) and presence of symptomatic or untreated brain metastases. Full inclusion and exclusion criteria are shown in Supplementary Table 1.
In Phase 2, patients were required to have MET overexpression, based on assessment of a tumour biopsy sample collected after sorafenib discontinuation and within 28 days before the first day of study treatment. MET overexpression was defined as moderate (2+) or strong (3+) staining for MET in ≥50% of tumour cells by immunohistochemistry (IHC) using the pharmDx anti-total MET (D1C2) rabbit monoclonal antibody (Dako, Agilent Technologies, Inc., Santa Clara, CA) (Supplementary Table 2). MET status was not required for Phase 1b, but was determined retrospectively in a biopsy sample collected within 28 days before the first day of study treatment. MET amplification status was determined for patients in Phase 1b and 2 using formalin-fixed paraffin-embedded tumour material by fluorescent in situ hybridisation. MET amplification was defined as MET:CEP7 ratio ≥2 or mean gene copy number ≥5.
(§2) Additional patients were enrolled at the RP2D.
(§3) The primary endpoint in Phase 1b was incidence of dose-limiting toxicities (DLTs) during Cycle 1. Details of DLTs are defined in Supplementary Table 3. Pharmacokinetics (PK) endpoints, including Cmax, and area under the concentration–time curve over the dosing interval at steady state (AUCτ,ss), were evaluated at Cycle 1, Day 15 as a secondary endpoint in Phase 1b. Selected efficacy measures were evaluated as secondary endpoints in Phase 1b.
In both phases, tumour assessments were performed per RECIST v1.1 and modified RECIST[29] v1.1 on Day 1 of every second cycle from Cycle 3 to 13, and Day 1 of every fourth cycle thereafter. Exploratory endpoints included biomarkers of MET pathway activity (including MET amplification status).
(§4) Continuous variables, including PK data, were summarised using descriptive statistics; qualitative variables were summarised by means of counts and percentages.
Tumour response (best overall response, ORR, DCR) and biological response were summarised, along with corresponding two-sided exact Clopper–Pearson 90% confidence intervals (CIs). Kaplan–Meier estimates of median PFS, TTP, time to symptomatic progression and OS are presented, along with 90% CIs (calculated using the two-sided exact Clopper–Pearson method). All statistical analyses were performed using SAS® Software version 9.4 (Statistical Analysis System, SAS-Institute, Cary, North Carolina, US).

[3] = test system: patients with sorafenib pretreated advanced hepatocellular carcinoma (aHCC); test: Phase 1b dose escalation ('3 + 3'): DLTs and adverse events; assay type: in vivo
Excerpt: as §1, §2, §3
In Phase 2, the primary endpoint was progression-free survival (PFS) status after 12 weeks of treatment, as assessed by the investigator per RECIST v1.1. Secondary endpoints included TTP, time to symptomatic progression, objective response rate (ORR), disease control rate (DCR) (all investigator-assessed and per RECIST v1.1), PFS per modified RECIST v1.1 (investigator-assessed), OS and biological response (defined as a decrease in AFP >20%). As sensitivity analyses, PFS and TTP were also evaluated by independent review. Safety was assessed via reporting of adverse events (AEs), graded according to National Cancer Institute Common Terminology and Criteria for Adverse Events v4.0.
as §4
Patients who were replaced during Cycle 1 were excluded from the analysis set.

[4] = Phase 1b: pharmacokinetics at Cycle 1, Day 15; settings: human, in vivo
Protocol: as §2, §3, §4

[5] = moderate (Child–Pugh B) hepatic impairment relative to control patients; cited from earlier work
[6] = Phase 1b, 300 mg cohort (n = 4)
[7] = Phase 1b, 500 mg cohort (n = 13)

## CNC(=O)c1ccc(-c2cnc3ncc(Cc4ccc5ncccc5c4)n3n2)cc1F [capmatinib]
[1]; 3/10 patients, MET IHC 3+, or 2+ with MET gene copy number ≥5
  objective response: 30%
[1]; 3/30 patients, MET H-score ≥50%, MET:CEP7 ratio ≥2 or MET gene copy number ≥5
  objective response: 10%

## CN1CCC(COc2cnc(-c3cccc(Cn4nc(-c5cccc(C#N)c5)ccc4=O)c3)nc2)CC1 [tepotinib]
[2]; [6]
  disease control: 50%
  objective responses: 50%
[2]; [7]
  disease control: 30.8%
  objective responses: 0%
[2]; Phase 1b, MET IHC 0
  DCR: 100.0%
[2]; Phase 1b, MET IHC 0 (n = 1)
  objective responses: 0%
[2]; Phase 1b, MET IHC 1+
  DCR: 40.0%
[2]; Phase 1b, MET IHC 1+ (n = 5)
  objective responses: 20%
[2]; Phase 1b, MET IHC 2+
  DCR: 42.9%
[2]; Phase 1b, MET IHC 2+ (n = 7)
  objective responses: 14.3%
[2]; Phase 1b, MET IHC 3+
  DCR: 0%
[2]; Phase 1b, MET IHC 3+ (n = 2)
  objective responses: 0.0%
[2]; Phase 1b, N = 17
  Median TTP: 2.1 months
  median OS: 7.2 months
  median PFS: 1.5 months
  patients who had died at the time of the analysis: 82.4%
  patients with disease progression at the time of the analysis: 70.6%
[2]; Phase 1b, overall (N = 17)
  disease control: 35.3%
[2]; Phase 1b, two of 17 patients, both 300 mg
  best overall response partial response (PR): 11.8%
[2]; Phase 1b 300 mg/day (n = 4)
  Best overall response CR: 0 n (%)
  Best overall response Not evaluable: 1 (25.0) n (%)
  Best overall response PD: 1 (25.0) n (%)
  Best overall response PR: 2 (50.0) n (%)
  Best overall response SD: 0 n (%)
[2]; Phase 1b 500 mg/day (n = 13)
  Best overall response CR: 0 n (%)
  Best overall response Not evaluable: 1 (7.7) n (%)
  Best overall response PD: 8 (61.5) n (%)
  Best overall response PR: 0 n (%)
  Best overall response SD: 4 (30.8) n (%)
[2]; Phase 1b Total (N = 17)
  Best overall response CR: 0 n (%)
  Best overall response Not evaluable: 2 (11.8) n (%)
  Best overall response PD: 9 (52.9) n (%)
  Best overall response PR: 2 (11.8) n (%)
  Best overall response SD: 4 (23.5) n (%)
[3]
  patients with at least one Grade ≥3 treatment-related AE: 23.5%
  patients with at least one treatment-related AE: 82.4%
  peripheral oedema, AE of any cause: 76.5%
[3]; 300 and 500 mg QD cohorts
  dose-limiting toxicities (DLTs) during Cycle 1: no DLTs
[3]; N = 17
  AEs of any cause that led to death: 23.5%
  patients with Grade ≥3 events of any cause: 58.8%
  permanently discontinued treatment due to AEs of any cause: 17.6%
[3]; N = 17 (peripheral oedema)
  permanently discontinued treatment due to treatment-related AEs: 5.9%
[4]; 300 mg QD, geometric mean (geometric CV 18.2%)
  AUC: 15200 ng·h/mL
[4]; 300 mg QD, geometric mean (geometric CV 19.6%)
  Cmax: 734 ng/mL
[4]; 500 mg QD, geometric mean (geometric CV 44.6%)
  Cmax: 677 ng/mL
[4]; 500 mg QD, geometric mean (geometric CV 50.4%)
  AUC: 12900 ng·h/mL
[5]
  reduction in exposure, AUC from time 0 to infinity: 12%
  reduction in exposure, Cmax: 29%
